Several values for one entry are separate records, joined by “and”; a condition that tells them apart may be missing. Identical values can stand only once. Like-named read-outs stand apart in the source and are kept apart here.
Key:
[1] = system: human hematopoietic progenitor cells (CD34+ cells); test: Blood cell stimulation: CD34+ suspension culture, lineage marker ELISA; assay type: cell-based
Description: A 96-well-based suspension culture system (Warren et al, Stem Cells 13:167 (1995) for human hematopoietic progenitor cells was used to monitor the commitment and differentiation of CD34+ cells in vitro. Expression of maturation and lineage markers on the cells in culture were measured by ELISA. […] A combination of growth factors was added that stimulates the expression of the appropriate lineage markers. The culture consisted of: IMDM plus 15% FBS, 0.5 ng/ml IL-3, 20 ng/ml SCF, 1 unit/ml EPO, 1 ng/ml GCSF and the indicated concentrations of test compounds. The cells were then fixed with a glutaraldehyde-paraformaldehyde mixture, attaching the cells firmly to the plastic. An ELISA was performed (Warren et al, Stem Cells 13:167 (1995)), using appropriate primary antibodies directed against cell surface markers. The expression of three different lineage markers was measured: CD14 (monocyte), CD15 (neutrophil), and glycophorin A (erythroid).

[2] = system: anti-Pn14 antibodies (Pn14-Tetanus Toxin antigen); design: species or system BALB/c female mice; conditions: mouse, in vivo
[3] = system: MOPC-315 myeloma; test: MOPC-315 Myeloma study #5: Melphalan + β-alethine ip day 9 (1 × 10^6 tumor cells); conditions: for Tumor Size: 1.25 mg/kg mp; for Animals Surviving: mp 1.25 mg/kg
[4] = system: MOPC-315 myeloma; test: MOPC-315 Myeloma study #6: β-alethine ip day 9, 10 or 11, mp ip day 10 (1 × 10^6 tumor cells); conditions: for Animals Surviving: mp 1.25 mg/kg d 10 alone (20 mice)
[5] = system: MOPC-315 myeloma; test: MOPC-315 Myeloma study #4: Melphalan + β-alethine ip day 10 (1 × 10^6 tumor cells); conditions: for Animals Surviving: mp 1.25 mg/kg; for Mean Tumor Size: mp alone
[6] = Study 2: 1 ug/ml, 1700 cells per well
[7] = mp on day 10, BT none, 20 in group

O=C(CCNC(=O)OCc1ccccc1)NCCOP(=O)(O)O [Taurox-BOP, N-carboxybenzoxy-β-alanyl-ethanolamine phosphate]
Percent difference (relative to control), monocytes ([1]; Study 1: 1 ng/ml compound): 18%
Percent difference (relative to control), neutrophils ([1]; Study 1: 1 ng/ml compound): 21%
Percent difference (relative to control), red blood cells ([1]; Study 1: 1 ng/ml compound): 0%
Percent difference (relative to control), CD34 cells [1, 6]: 33%
Percent difference (relative to control), RBC [1, 6]: 55%
Percent difference (relative to control), monocytes [1, 6]: 9%
Mean Change in O.D. from pretest, Day 4 [2]: 0
Mean Change in O.D. from pretest, Day 14 [2]: 366
Mean Change in O.D. from pretest, Day 14 ([2]; ip): 877 and 515

N[C@@H](Cc1ccc(N(CCCl)CCCl)cc1)C(=O)O [mp, melphalan]
Tumor Size ([3]; day 13): 20.4 mm
Tumor Size ([3]; day 16): 19.2 mm
Tumor Size ([3]; day 20): 17.0 mm
Tumor Size ([3]; day 23): 10.2 mm
Tumor Size ([3]; day 27): 0 mm
Animals Surviving ([3]; day 10): 10
Animals Surviving ([3]; day 11): 10
Animals Surviving ([3]; day 12): 10
Animals Surviving ([3]; day 13): 10
Animals Surviving ([3]; day 14): 10
Animals Surviving ([3]; day 15): 10
Animals Surviving ([3]; day 16): 10
Animals Surviving ([3]; day 17): 10
Animals Surviving ([3]; day 18): 10
Animals Surviving ([3]; day 19): 10
Animals Surviving ([3]; day 20): 9
Animals Surviving ([3]; day 21): 9
Animals Surviving ([3]; day 22): 9
Animals Surviving ([3]; day 23): 8
Animals Surviving ([3]; day 25): 8
Animals Surviving ([3]; day 26): 8
Animals Surviving ([3]; day 28): 7
Animals Surviving ([3]; day 29): 7
Animals Surviving ([3]; day 31): 7
Animals Surviving ([4]; test day 10): 20
Animals Surviving ([4]; test day 11): 20
Animals Surviving ([4]; test day 12): 20
Animals Surviving ([4]; test day 13): 20
Animals Surviving ([4]; test day 14): 20
Animals Surviving ([4]; test day 15): 20
Animals Surviving ([4]; test day 16): 19
Animals Surviving ([4]; test day 17): 19
Animals Surviving ([4]; test day 18): 19
Animals Surviving ([4]; test day 19): 19
Animals Surviving ([4]; test day 20): 19
Animals Surviving ([4]; test day 21): 15
Animals Surviving ([4]; test day 22): 9
Animals Surviving ([4]; test day 23): 9
Animals Surviving ([4]; test day 25): 7
Animals Surviving ([4]; test day 26): 4
Animals Surviving ([4]; test day 27): 3
Animals Surviving ([4]; test day 29): 2
Animals Surviving ([4]; test day 31): 2
day 21 tumor size ([4]; mp on day 10, BT none): 25.8 mm
day half are dead ([4]; mp on day 10, BT none): 22
cures day 21 [4, 7]: 2
deaths day 21 [4, 7]: 5
cures day 21 ([4]; mp on day 10, BT none, 20 in group, listed as melphalan): 2/20
day 21 tumor size ([4]; mp on day 10, BT none, listed as melphalan): 26 mm
animals in ten cured ([5]; mp 1.25 mg/kg alone): one
cure occurred, days after treatment began ([5]; mp 1.25 mg/kg alone): 19 days
Animals Surviving ([5]; day 10): 10
Animals Surviving ([5]; day 11): 8
Animals Surviving ([5]; day 12): 5
Animals Surviving ([5]; day 13): 4
Animals Surviving ([5]; day 14): 3
Animals Surviving ([5]; day 15): 3
Animals Surviving ([5]; day 16): 3
Animals Surviving ([5]; day 17): 3
Animals Surviving ([5]; day 18): 3
Animals Surviving ([5]; day 19): 3
Animals Surviving ([5]; day 20): 3
Animals Surviving ([5]; day 21): 3
Animals Surviving ([5]; day 22): 3
Animals Surviving ([5]; day 23): 3
Animals Surviving ([5]; day 25): 3
Animals Surviving ([5]; day 26): 3
Animals Surviving ([5]; day 27): 3
Animals Surviving ([5]; day 29): 3
Animals Surviving ([5]; day 31): 1
Mean Tumor Size ([5]; day 10): 22.5 mm
Mean Tumor Size ([5]; day 14): 19 mm
Mean Tumor Size ([5]; day 17): 17 mm
Mean Tumor Size ([5]; day 21): 22 mm
Mean Tumor Size ([5]; day 29): 28 mm

Reference: patent publication US6762174B1 (priority 1998, dated 2004)
